Values of other authors, collected in patent publication US9119854B2, “Methods for treating cancer using combination therapy” (CELGENE CORPORATION, priority 2013, dated 2015).

Tests used:
BTK = BTK (Homo sapiens, UniProt Q06187); conditions: enzymatic and cellular assays; the '610 publication
CRBN = CRBN (Homo sapiens, UniProt Q96SW2); conditions: in vitro; Ito et al., Science 2010
Sequence of CRBN (Q96SW2 whole entry): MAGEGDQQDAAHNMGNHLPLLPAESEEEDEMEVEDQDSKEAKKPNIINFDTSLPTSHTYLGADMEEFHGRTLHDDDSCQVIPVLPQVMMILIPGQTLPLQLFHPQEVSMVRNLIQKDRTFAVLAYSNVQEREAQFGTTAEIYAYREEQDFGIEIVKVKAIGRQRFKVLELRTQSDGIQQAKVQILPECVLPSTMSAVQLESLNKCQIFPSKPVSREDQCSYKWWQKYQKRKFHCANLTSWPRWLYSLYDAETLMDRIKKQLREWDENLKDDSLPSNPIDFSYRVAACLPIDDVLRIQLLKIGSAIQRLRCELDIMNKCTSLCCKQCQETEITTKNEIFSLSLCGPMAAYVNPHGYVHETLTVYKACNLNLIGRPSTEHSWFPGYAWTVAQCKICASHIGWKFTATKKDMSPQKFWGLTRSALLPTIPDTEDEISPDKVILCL
Sequence of CRBN (Q16531 whole entry partner): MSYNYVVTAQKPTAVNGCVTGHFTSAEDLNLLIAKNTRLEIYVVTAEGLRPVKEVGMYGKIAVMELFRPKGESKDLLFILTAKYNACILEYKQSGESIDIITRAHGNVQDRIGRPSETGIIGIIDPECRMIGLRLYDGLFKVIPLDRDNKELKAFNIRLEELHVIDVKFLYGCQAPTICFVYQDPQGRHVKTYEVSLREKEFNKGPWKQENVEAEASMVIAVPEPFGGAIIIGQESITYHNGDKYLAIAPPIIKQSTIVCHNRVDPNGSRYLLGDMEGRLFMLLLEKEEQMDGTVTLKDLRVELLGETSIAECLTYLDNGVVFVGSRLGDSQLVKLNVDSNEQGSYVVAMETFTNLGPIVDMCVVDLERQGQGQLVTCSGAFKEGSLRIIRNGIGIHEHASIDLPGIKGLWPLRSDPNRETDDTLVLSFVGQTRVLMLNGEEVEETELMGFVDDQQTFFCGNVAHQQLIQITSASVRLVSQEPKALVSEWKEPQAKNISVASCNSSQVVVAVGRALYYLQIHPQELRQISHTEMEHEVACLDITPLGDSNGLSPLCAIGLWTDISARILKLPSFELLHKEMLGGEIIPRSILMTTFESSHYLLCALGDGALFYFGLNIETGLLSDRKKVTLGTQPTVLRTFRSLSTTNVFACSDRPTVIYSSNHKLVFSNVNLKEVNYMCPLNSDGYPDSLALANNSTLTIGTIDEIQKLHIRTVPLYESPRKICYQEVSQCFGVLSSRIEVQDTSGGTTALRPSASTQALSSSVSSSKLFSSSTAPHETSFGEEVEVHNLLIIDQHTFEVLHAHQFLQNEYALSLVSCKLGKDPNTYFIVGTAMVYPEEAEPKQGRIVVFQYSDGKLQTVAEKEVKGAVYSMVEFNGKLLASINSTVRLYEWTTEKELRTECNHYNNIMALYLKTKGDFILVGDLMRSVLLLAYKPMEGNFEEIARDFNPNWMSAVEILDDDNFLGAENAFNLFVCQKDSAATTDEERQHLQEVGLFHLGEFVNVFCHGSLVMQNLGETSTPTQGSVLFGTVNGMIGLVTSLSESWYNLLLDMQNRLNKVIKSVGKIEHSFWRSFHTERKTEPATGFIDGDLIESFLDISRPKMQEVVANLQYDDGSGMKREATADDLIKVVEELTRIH
Sequence of CRBN (Q13619 whole entry partner): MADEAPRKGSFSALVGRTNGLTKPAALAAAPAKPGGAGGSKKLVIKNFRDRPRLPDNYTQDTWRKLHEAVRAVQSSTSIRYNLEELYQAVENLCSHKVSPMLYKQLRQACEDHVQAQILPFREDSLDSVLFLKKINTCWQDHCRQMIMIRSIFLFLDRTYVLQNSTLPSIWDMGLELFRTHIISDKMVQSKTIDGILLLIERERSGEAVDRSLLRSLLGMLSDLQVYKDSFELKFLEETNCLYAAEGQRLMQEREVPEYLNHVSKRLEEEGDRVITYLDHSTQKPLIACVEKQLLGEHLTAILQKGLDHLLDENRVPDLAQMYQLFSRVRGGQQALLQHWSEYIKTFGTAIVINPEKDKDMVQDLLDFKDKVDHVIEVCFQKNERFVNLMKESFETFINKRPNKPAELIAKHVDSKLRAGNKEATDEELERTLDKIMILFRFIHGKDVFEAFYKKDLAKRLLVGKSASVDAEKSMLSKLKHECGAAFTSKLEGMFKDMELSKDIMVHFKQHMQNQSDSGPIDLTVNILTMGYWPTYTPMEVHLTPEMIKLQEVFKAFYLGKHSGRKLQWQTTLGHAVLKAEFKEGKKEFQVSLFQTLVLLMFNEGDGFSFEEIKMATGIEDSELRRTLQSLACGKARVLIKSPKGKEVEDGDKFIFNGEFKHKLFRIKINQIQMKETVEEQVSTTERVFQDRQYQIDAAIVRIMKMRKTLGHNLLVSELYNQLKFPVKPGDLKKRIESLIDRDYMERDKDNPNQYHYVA
Sequence of CRBN (P62877 whole entry partner): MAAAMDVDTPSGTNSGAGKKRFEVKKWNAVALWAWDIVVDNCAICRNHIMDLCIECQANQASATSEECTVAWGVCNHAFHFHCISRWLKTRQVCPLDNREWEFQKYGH

Sequence of BTK (Q06187 whole entry, species assumed): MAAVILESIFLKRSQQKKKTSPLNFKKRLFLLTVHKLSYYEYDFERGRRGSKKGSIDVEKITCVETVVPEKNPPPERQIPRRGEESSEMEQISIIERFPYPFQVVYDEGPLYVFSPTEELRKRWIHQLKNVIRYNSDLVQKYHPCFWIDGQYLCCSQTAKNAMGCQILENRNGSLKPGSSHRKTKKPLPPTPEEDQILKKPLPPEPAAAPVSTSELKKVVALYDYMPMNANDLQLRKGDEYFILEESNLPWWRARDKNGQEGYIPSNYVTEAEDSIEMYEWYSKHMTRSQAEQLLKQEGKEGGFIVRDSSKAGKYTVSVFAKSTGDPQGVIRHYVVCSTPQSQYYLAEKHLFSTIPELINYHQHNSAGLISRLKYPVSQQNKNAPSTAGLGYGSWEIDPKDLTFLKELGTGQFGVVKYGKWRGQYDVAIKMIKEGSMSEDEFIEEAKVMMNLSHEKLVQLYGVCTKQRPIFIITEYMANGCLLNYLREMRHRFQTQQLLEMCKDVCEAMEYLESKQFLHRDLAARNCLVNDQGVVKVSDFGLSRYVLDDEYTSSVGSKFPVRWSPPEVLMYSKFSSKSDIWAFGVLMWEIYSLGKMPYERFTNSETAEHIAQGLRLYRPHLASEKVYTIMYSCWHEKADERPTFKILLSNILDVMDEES

Compound | inhibition of BTK (BTK) | B-cell proliferation and activation (B-cell) | auto-ubiquitination of CRBN (CRBN)
C=CC(=O)Nc1cccc(Nc2nc(Nc3ccc(OCCOC)cc3)ncc2F)c1 [Compound AA, N-(3-(5-fluoro-2-(4-(2-methoxyethoxy)phenylamino)pyrimidin-4-ylamino)phenyl)acrylamide] | covalent, irreversible inhibition | found to inhibit | 
O=C1CCC(N2C(=O)c3ccccc3C2=O)C(=O)N1 (stereo not drawn) [thalidomide] |  |  | able to inhibit
